# System: asymmetric di-methyl PABP1 in RKO cells
# Assay: RKO methylation assay, In Cell Western (ICW) for asymmetric di-methyl PABP1
# Assay type: cell-based
# Details: Homo sapiens, RKO, Cellular potencies, ICW PABP1me2a
# Outline: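 RKO cells treated with compound for 48 h at 37 °C, then fixed, permeabilized and immunostained for asymmetric di-methyl PABP1, with DRAQ5 as DNA stain. Infrared 700/800 nm signal ratio normalized to DMSO and 20 μM reference-compound controls; IC50 from triplicate wells.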
row,SMILES,IC50 [µM]
1,CNC[C@@H](O)COc1ccc(Cl)c(-c2nc(-c3c(C)noc3C)c(C)c(N3Cc4cnc(C(C)C)nc4C3)n2)c1 [Example 264-3],< 5
2,CNC[C@@H](O)COc1ccc(Cl)c(-c2nc(-c3c(C)noc3C)c(C)c(N3CC4CC4C3)n2)c1 (stereo partly shown) [Example 235-3],< 5
3,CNCC(O)COc1cccc(-c2nc(NC3CCN(C(=O)C4CC4)CC3)c(C)c(-c3c(C)noc3C)n2)c1 (stereo not shown) [Example 245-1a],< 5
4,CNCC(O)COc1cccc(-c2nc(-c3cn(C)c(C)n3)cc(N(C)C3CCOCC3)n2)c1 (stereo not shown) [Example 529-1a],5 to 10
5,CNCC(O)COc1cccc(-c2nc(-c3nc(C)cn3C)cc(N(C)C3CCOCC3)n2)c1 (stereo not shown) [Example 519-1a],5 to 10
6,CNC[C@@H](O)COc1ccc(Cl)c(-c2nc(N[C@@H]3CCN(C)C[C@@H]3F)c(C)c(-c3c(C)noc3C)n2)c1 [Example 194-3],< 5
7,CNC[C@@H](O)COc1ccc(Cl)c(-c2nc(N[C@H]3C[C@@H](C)O[C@@H](C)C3)c(Cl)c(-c3c(C)noc3C)n2)c1 [Example 173-3],< 5
8,CNCC(O)COc1cccc(-c2nc(OCC3CCN(CC(F)F)CC3)c(C)c(-c3c(C)noc3C)n2)c1 (stereo not shown) [Example 288-1a],< 5
9,CNCC(O)COc1cccc(-c2nc(N[C@@H]3CCOC3)c(C)c(N3CC[C@@H](c4cccnc4)C3)n2)c1 (stereo partly shown) [Example 467-1a],< 5
10,CCOC(=O)N1CCC(Nc2nc(-c3cccc(OCC(O)CNC)c3)nc(-c3c(C)noc3C)c2C)CC1 (stereo not shown) [Example 189-1a],< 5
11,CNC[C@@H](O)COc1ccc(Cl)c(-c2nc(-c3c(C)noc3C)c(C)c(N3CC4(CCN(CC(F)F)CC4)C3)n2)c1 [Example 283-3],< 5
12,CNCC(O)COc1cccc(-c2nc(NCC3(O)CCOCC3)c(C)c(-c3c(C)noc3C)n2)c1 (stereo not shown) [Example 114-1a],10 to 20
13,CNCC(O)COc1cccc(-c2nc(-c3c(C)noc3C)cc(N3CCNC(C)C3)n2)c1 (stereo not shown) [Example 35-1a],5 to 10
14,CNCC(O)COc1cccc(-c2nc(-c3c(C)noc3C)c(C)c(N3CC[C@H](C(=O)N(C)C)C3)n2)c1 (stereo partly shown) [Example 162-1a],< 5
15,CNC[C@@H](O)COc1ccc(Cl)c(-c2nc(-c3c(C)noc3C)c(C)c(N3CCC4(CC4)C3)n2)c1 [Example 234-3],< 5
16,CNC[C@@H](O)COc1ccc(Cl)c(-c2nc(N[C@H]3C[C@H](OC)C3)c(Cl)c(-c3c(C)noc3C)n2)c1 [Example 217-3],< 5
17,CCOC(=O)N1CCOC[C@@H]1CNc1nc(-c2cccc(OCC(O)CNC)c2)nc(-c2c(C)noc2C)c1C (stereo partly shown) [Example 206-1a],< 5
18,CNCC(O)COc1ccc(Cl)c(-c2nc(NC[C@H]3COCCN3C3COC3)c(C)c(-c3c(C)noc3C)n2)c1 (stereo partly shown) [Example 2-3],< 5
19,CNCC(O)COc1cccc(-c2nc(C3=CCCC3)cc(N(C)C3CCOCC3)n2)c1 (stereo not shown) [Example 621-1a],10 to 20
20,CNCC(O)COc1cccc(-c2nc(N[C@@H]3CCOC3=O)c(C)c(-c3c(C)noc3C)n2)c1 (stereo partly shown) [Example 291-1a],10 to 20
21,CNCC(O)COc1cccc(-c2nc(OCC3CCN(C(=O)OC)CC3)c(C)c(-c3c(C)noc3C)n2)c1 (stereo not shown) [Example 284-1a],< 5
22,CCO[C@@H]1CCC[C@H]1Nc1nc(-c2cc(OC[C@H](O)CNC)ccc2Cl)nc(-c2c(C)noc2C)c1C [Example 240-3],< 5
23,CNC[C@@H](O)COc1ccc(Cl)c(-c2nc(NC[C@@H]3CCOC3)c(C)c(-c3c(C)noc3C)n2)c1 [Example 228-3],< 5

row,SMILES,IC50 [µM]
1,CNC[C@@H](O)COc1ccc(Cl)c(-c2nc(N[C@H]3CO[C@@H](C)C3)c(C)c(-c3c(C)noc3C)n2)c1 [Example 152-3],< 5
2,CNCC(O)COc1cccc(-c2nc(-c3cncnc3)cc(N(C)C3CCOCC3)n2)c1 (stereo not shown) [Example 525-1a],5 to 10
3,CNC[C@@H](O)COc1cccc(-c2nc(-c3c[nH]c4ncncc34)c(C)c(N(C)C3CCOCC3)n2)c1 [Example 526-1a],5 to 10
4,Cc1noc(C)c1-c1nc(-c2cc(OC[C@H](O)CN(C)C)ccc2Cl)nc(N[C@H]2CCN(C3CC3)[C@@H](C)C2)c1C [Example 171-3],< 5
5,CNCC(O)COc1cccc(-c2nc(N[C@@H]3CCOC3)c(C)c(N3CCN(C4CC4)CC3)n2)c1 (stereo partly shown) [Example 436-1a],< 5
6,CNCC(O)COc1cccc(-c2nc(N[C@@H]3CCOC3)c(C)c(N3C[C@H]4CNC[C@H]4C3)n2)c1 (stereo partly shown) [Example 440-1a],10 to 20
7,CCOC(=O)N1CCOC[C@@H]1CNc1nc(-c2cc(OC[C@H](O)CNC)ccc2F)nc(-c2c(C)noc2C)c1C [Example 62-3],< 5
8,CNC[C@@H](O)COc1ccc(Cl)c(-c2nc(-c3c(C)noc3C)c(C)c(N3CC4(CCN(C(=O)OC)C4)C3)n2)c1 [Example 175-3],< 5
9,CNC[C@H](O)COc1cccc(-c2nc(-c3cnc4cnccn34)cc(N(C)C3CCOCC3)n2)c1 [Example 486-1a],< 5
10,CNC[C@H](O)COc1ccc(F)c(-c2nc(N[C@H]3CCN(C(=O)OC)C[C@H]3F)c(C)c(-c3c(C)noc3C)n2)c1 [Example 63-3],< 5
11,CNC[C@H](O)COc1ccc(F)c(-c2nc(-c3c(C)noc3C)c(C)c(N3Cc4cccnc4C3)n2)c1 [Example 91-3],< 5
12,CNC[C@@H](O)COc1ccc(Cl)c(-c2nc(NC[C@H]3CCCO3)c(C)c(-c3c(C)noc3C)n2)c1 [Example 130-3],< 5
13,CNCC(O)COc1cccc(-c2nc(N[C@H]3CC[C@H](OC)C3)c(C)c(-c3c(C)noc3C)n2)c1 (stereo partly shown) [Example 234-1a],< 5
14,CNCC(O)COc1cccc(-c2nc(-c3c(C)noc3C)c(C)c(N3CCNC(C(F)F)C3)n2)c1 (stereo not shown) [Example 47-3],10 to 20
15,CNCC(O)COc1cccc(-c2nc(-c3c(C)noc3C)c(C)c(N3CCN(C(=O)OCC(F)F)CC3)n2)c1 (stereo not shown) [Example 161-1a],< 5
16,CNC[C@@H](O)COc1ccc(F)c(-c2nc(-c3c(C)noc3C)c(C)c(N3Cc4cccnc4C3)n2)c1 [Example 114-3],< 5
17,CNC[C@H](O)COc1ccc(Cl)c(-c2nc(NC3CCN(C(=O)OC)CC3)c(Cl)c(-c3c(C)noc3C)n2)c1 [Example 305-1a],< 5
18,CNCC(O)COc1cccc(-c2nc(N3CCN4C(=O)OC[C@@H]4C3)cc(N(C)C3CCOCC3)n2)c1 (stereo partly shown) [Example 576-1a],10 to 20
19,CNCC(O)COc1cccc(-c2nc(NC3CCOC3)c(C)c(N3CCNC[C@H]3C)n2)c1 (stereo partly shown) [Example 352-1a],10 to 20
20,CNCC(O)COc1cccc(-c2nc(-c3c(C)noc3C)c(C)c(N3CCO[C@H](CN(C)S(C)(=O)=O)C3)n2)c1 (stereo partly shown) [Example 126-1a],5 to 10
21,CNCC(O)COc1cccc(-c2nc(-c3ccncc3)c(C)c(N(C)C3CCOCC3)n2)c1 (stereo not shown) [Example 537-1a],5 to 10
22,CCOC(=O)N1CCN(c2cc(-c3c(C)noc3C)nc(-c3cccc(OCC(O)CNC)c3)n2)CC1 (stereo not shown) [Example 28-1a],< 5
23,CCOC(=O)N1CCC[C@@H]1COc1nc(-c2cc(OC[C@H](O)CNC)ccc2Cl)nc(-c2c(C)noc2C)c1C [Example 133-3],< 5

row,SMILES,IC50 [µM]
1,CNCC(O)COc1cccc(-c2nc(N[C@@H]3CCOC3)c(C)c(N3CCC(n4nc(C)cc4C)C3)n2)c1 (stereo partly shown) [Example 468-1a],5 to 10
2,CNCC(O)COc1cccc(-c2nc(Nc3ncc(C)cn3)cc(N(C)C3CCOCC3)n2)c1 (stereo not shown) [Example 513-1a],5 to 10
3,CNCC(O)COc1cccc(-c2nc(N[C@@H]3CCOC3)c(C)c(N3CCOCC3)n2)c1 (stereo partly shown) [Example 3-1],5 to 10
4,CNCC(O)COc1cccc(-c2nc(-c3c(C)noc3C)c(C)c(N3C[C@@H]4C[C@H]3CN4C)n2)c1 (stereo partly shown) [Example 84-1a],< 5
5,CNCC(O)COc1cccc(-c2nc(-c3c(C)noc3C)c(C)c(N3CC(CO)(CNC(=O)N(C)C)C3)n2)c1 (stereo not shown) [Example 298-1a],10 to 20
6,CNCC(O)COc1cccc(-c2nc(N[C@@H]3CCOC3)c(C)c(N3Cc4ccncc4C3)n2)c1 (stereo partly shown) [Example 427-1a],< 5
7,CNCC(O)COc1cccc(-c2nc(-c3c(C)noc3C)cc(N3CCN(S(C)(=O)=O)[C@H](C)C3)n2)c1 (stereo partly shown) [Example 147-1a],< 5
8,CNCC(O)COc1ccc(Cl)c(-c2nc(NCC3CCOC3)c(C)c(-c3c(C)noc3C)n2)c1 (stereo not shown) [Example 30-3],< 5
9,CNCC(O)COc1cccc(-c2nc(NC3CCOC3)c(C)c(N3CCN(C)C(C)(C)C3)n2)c1 (stereo not shown) [Example 455-1a],< 5
10,CCS(=O)(=O)N1CC2(CCN(c3nc(-c4cccc(OCC(O)CNC)c4)nc(-c4c(C)noc4C)c3C)CC2)C1 (stereo not shown) [Example 253-1a],< 5
11,CNCC(O)COc1cccc(-c2nc(-c3ccc(N4CCOCC4)nn3)cc(N(C)C3CCOCC3)n2)c1 (stereo not shown) [Example 512-1a],5 to 10
12,CNCC(O)COc1ccc(Cl)c(-c2nc(NC3CCN(C(=O)OC)CC3)c(Cl)c(-c3c(C)noc3C)n2)c1 (stereo not shown) [Example 187-1a],< 5
13,CNCC(O)COc1cccc(-c2nc(-c3c(C)noc3C)c(C)c(N3CCN(C(=O)OC)C(C(F)F)C3)n2)c1 (stereo not shown) [Example 17-3],< 5
14,CNCC(O)COc1ccc(Cl)c(-c2nc(N[C@H]3CCC[C@@H](O)C3)c(C)c(-c3c(C)noc3C)n2)c1 (stereo partly shown) [Example 39-3],< 5
15,CCS(=O)(=O)N1CCC(Nc2nc(-c3cccc(OCC(O)CNC)c3)nc(-c3c(C)noc3C)c2C)CC1 (stereo not shown) [Example 168-1a],< 5
16,CCS(=O)(=O)N1CC(Nc2nc(-c3cccc(OCC(O)CNC)c3)nc(-c3c(C)noc3C)c2C)C1 (stereo not shown) [Example 273-1a],10 to 20
17,CNC[C@H](O)COc1ccc(Cl)c(-c2nc(-c3c(C)noc3C)c(C)c(N3Cc4cccnc4C3)n2)c1 [Example 92-3],< 5
18,CNCC(O)COc1cccc(-c2nc(N3CCN(C)C(=O)C3)cc(N(C)C3CCOCC3)n2)c1 (stereo not shown) [Example 549-1a],10 to 20
19,CNCC(O)COc1cccc(-c2nc(C(C)=O)c(C)c(N(C)C3CCOCC3)n2)c1 (stereo not shown) [Example 544-1a],10 to 20
20,CNCC(O)COc1cccc(-c2nc(-c3c(C)noc3C)cc(N3CCN(S(C)(=O)=O)[C@@H](C)C3)n2)c1 (stereo partly shown) [Example 92-1a],< 5
21,CNC[C@@H](O)COc1ccc(Cl)c(-c2nc(-c3c(C)noc3C)c(C)c(N3Cc4cc(Br)cnc4C3)n2)c1 [Example 248-3],< 5

# Reference: patent US10633389B2, “CARM1 inhibitors and uses thereof” (Epizyme, Inc., priority 2013, dated 2020)
